Peptide text beside a SMILES is read from it.
Test system: Botrytis cinerea (B05.10)
Experiment: Resazurin antifungal assay of 180 alpha-factor peptide variants towards Botrytis (Example 2)
Format: cell-based
Design: key to active against Botrytis at 15 μM / active against Botrytis at 10 μM: Peptides that showed greater than 90% inhibition were considered active against Botrytis
Settings: for Inhibition at 10 μM / Inhibition at 20 μM / Inhibition at 50 μM / Inhibition at 100 μM / Inhibition at 15 μM: % inhibition of fungal growth, Botrytis conidia, resazurin; for Inhibition at 10 μM: peptide 10 μM; for Inhibition at 20 μM: peptide 20 μM; for Inhibition at 50 μM: peptide 50 μM; for Inhibition at 100 μM: peptide 100 μM; for Inhibition at 15 μM / active against Botrytis at 15 μM: peptide 15 μM
Experimental: The antifungal activity of 180 alpha-factor peptide variants towards Botrytis was tested. Experimental design:
Peptides corresponding to SEQ ID NO: 1-180 were chemically synthesized using the solid-phase synthesis method and resuspended in water to a stock solution of 1 mM. The stock solution was aliquoted in cryovials and stored at −80° C.
The Botrytis cinerea culture (B05.10) isolate was acquired from the Centraalbureau voor Schimmelcultures, the Netherlands. The Botrytis fungus was propagated on 0.5% V8 agar plates (200 ml V8 Juice, 3 g CaCO3, 15 g agar, 800-ml millipore water) at 20° C., in a 12 h photoperiod for 21 days.
Fungal conidia were harvested by scraping a Botrytis plate flooded with 1 ml water with 0.1% Tween 80 solution. Conidia were then collected in a 50 ml falcon tube by passing the solution through a 40 micron filter. The solution was then centrifuged at 6000 rpm and the pellet was resuspended in 1 ml of 20% glycerol. The conidia concentration of the resulting solution was counted using a hemocytometer. The stock was diluted to […] using 20% glycerol and frozen in 100 μl aliquots in −80° C. until further use.
Peptides were tested for activity against Botrytis, using the resazurin assay. For this, fungal stock conidia was first diluted to 5000 conidia/well. 50 μl of the spore suspension was added to each well of the sterile 96-well clear bottom testing plate and mixed with 50 μl of peptide solutions to a final concentration of 100, 50, 20, 15 and 10 μM. The plate was incubated for 24 h at 20° C. After 24 h, 10 μl of resazurin dye was added to the microtiter plate and incubated again for […]. Fluorescence was measured at 570/620 nm after 4 h of incubation with resazurin.
Growth inhibition was calculated by subtracting the fluorescence values of conidia only wells from sample wells and depicted as % inhibition of fungal growth. Four technical replicates were used for all treatments.

Compound	Inhibition at 10 μM	Inhibition at 20 μM	Inhibition at 50 μM	Inhibition at 100 μM	Inhibition at 15 μM	active against Botrytis at 15 μM
CSCC[C@H](NC(=O)[C@H](CO)NC(=O)[C@H](CCC(N)=O)NC(=O)CNC(=O)[C@H](CCCNC(=N)N)NC(=O)[C@H](Cc1c[nH]c2ccccc12)NC(=O)[C@H](Cc1ccccc1)NC(=O)[C@H](CCC(N)=O)NC(=O)[C@H](CC(C)C)NC(=O)[C@H](Cc1c[nH]c2ccccc12)NC(=O)[C@H](Cc1c[nH]cn1)NC(=O)[C@@H](N)Cc1c[nH]c2ccccc12)C(=O)N[C@@H](Cc1ccc(O)cc1)C(=O)O [compound 1] (H-WHWLQFWRGQSMY-OH; N-terminus and C-terminus assumed)	<90%	<90%	100%	100%	–	–
CSCC[C@H](NC(=O)[C@@H]1CCCN1C(=O)[C@H](CCC(N)=O)NC(=O)CNC(=O)[C@H](CCCCN)NC(=O)[C@H](CCCCN)NC(=O)[C@H](Cc1ccccc1)NC(=O)[C@H](CO)NC(=O)CNC(=O)[C@H](Cc1c[nH]c2ccccc12)NC(=O)[C@H](Cc1c[nH]cn1)NC(=O)[C@@H]1CCCN1)C(=O)N[C@@H](Cc1ccc(O)cc1)C(=O)O [compound 2] (H-PHWGSFKKGQPMY-OH; N-terminus and C-terminus assumed)	<90%	<90%	100%	100%	–	–
CSCC[C@H](NC(=O)[C@@H]1CCCN1C(=O)[C@H](C)NC(=O)CNC(=O)[C@H](Cc1c[nH]c2ccccc12)NC(=O)[C@H](CCCCN)NC(=O)[C@H](CC(C)C)NC(=O)[C@@H](NC(=O)[C@@H](NC(=O)[C@H](Cc1c[nH]c2ccccc12)NC(=O)[C@H](Cc1c[nH]cn1)NC(=O)[C@@H](N)CCCCN)C(C)C)[C@@H](C)O)C(=O)N[C@@H](Cc1ccc(O)cc1)C(=O)O [compound 3] (H-KHWVTLKWGAPMY-OH; N-terminus and C-terminus assumed)	<90%	100.61%	100%	100%	<90%	–
CSCC[C@H](NC(=O)[C@@H]1CCCN1C(=O)[C@H](CCC(N)=O)NC(=O)CNC(=O)[C@@H]1CCCN1C(=O)[C@H](CCCCN)NC(=O)[C@H](Cc1ccccc1)NC(=O)[C@H](CCCNC(=N)N)NC(=O)[C@H](CC(C)C)NC(=O)[C@H](CC(C)C)NC(=O)[C@H](Cc1c[nH]cn1)NC(=O)[C@@H](N)Cc1c[nH]c2ccccc12)C(=O)N[C@@H](Cc1ccc(O)cc1)C(=O)O [compound 4] (H-WHLLRFKPGQPMY-OH; N-terminus and C-terminus assumed)	<90%	<90%	100%	100%	–	–
CSCC[C@H](NC(=O)[C@@H]1CCCN1C(=O)[C@H](CCC(N)=O)NC(=O)CNC(=O)[C@@H]1CCCN1C(=O)[C@H](CCCCN)NC(=O)[C@H](Cc1ccccc1)NC(=O)[C@H](CCCNC(=N)N)NC(=O)[C@H](CC(C)C)NC(=O)[C@H](Cc1c[nH]c2ccccc12)NC(=O)[C@H](Cc1c[nH]cn1)NC(=O)[C@@H]1CCCN1)C(=O)N[C@@H](Cc1ccc(O)cc1)C(=O)O [compound 5] (H-PHWLRFKPGQPMY-OH; N-terminus and C-terminus assumed)	<90%	<90%	100%	100%	–	–
CSCC[C@H](NC(=O)[C@@H]1CCCN1C(=O)[C@H](C)NC(=O)CNC(=O)[C@H](CCCNC(=N)N)NC(=O)[C@H](CCCCN)NC(=O)[C@H](CC(C)C)NC(=O)[C@H](CCC(N)=O)NC(=O)[C@@H](NC(=O)[C@H](Cc1c[nH]c2ccccc12)NC(=O)[C@H](Cc1c[nH]cn1)NC(=O)[C@@H]1CCCN1)C(C)C)C(=O)N[C@@H](Cc1ccc(O)cc1)C(=O)O [compound 6] (H-PHWVQLKRGAPMY-OH; N-terminus and C-terminus assumed)	<90%	<90%	100%	100%	–	–
CC[C@H](C)[C@H](NC(=O)[C@H](CCC(N)=O)NC(=O)[C@H](CC(C)C)NC(=O)[C@H](Cc1c[nH]c2ccccc12)NC(=O)[C@H](Cc1c[nH]cn1)NC(=O)[C@@H](N)CCCCN)C(=O)N[C@@H](CCCCN)C(=O)N[C@@H](Cc1ccc(O)cc1)C(=O)NCC(=O)N[C@@H](CCC(=O)O)C(=O)N1CCC[C@H]1C(=O)N[C@@H](CCSC)C(=O)N[C@@H](Cc1ccc(O)cc1)C(=O)O [compound 7] (H-KHWLQIKYGEPMY-OH; N-terminus and C-terminus assumed)	<90%	<90%	100%	100%	–	–
CC[C@H](C)[C@H](NC(=O)[C@H](Cc1c[nH]c2ccccc12)NC(=O)[C@H](Cc1c[nH]cn1)NC(=O)[C@@H](N)CCCCN)C(=O)N[C@@H](CCCCN)C(=O)N[C@@H](CC(C)C)C(=O)N[C@@H](CCSC)C(=O)N1CCC[C@H]1C(=O)NCC(=O)N[C@@H](CCC(N)=O)C(=O)NCC(=O)N[C@@H](CCSC)C(=O)N[C@@H](Cc1ccc(O)cc1)C(=O)O [compound 8] (H-KHWIKLMPGQGMY-OH; N-terminus and C-terminus assumed)	<90%	<90%	100%	100%	–	–
CSCC[C@H](NC(=O)[C@@H]1CCCN1C(=O)[C@H](CCC(N)=O)NC(=O)CNC(=O)[C@@H]1CCCN1C(=O)[C@H](CCCCN)NC(=O)[C@H](Cc1ccccc1)NC(=O)[C@H](CCCNC(=N)N)NC(=O)[C@H](CC(C)C)NC(=O)[C@H](Cc1c[nH]c2ccccc12)NC(=O)[C@H](Cc1c[nH]cn1)NC(=O)[C@@H](N)CCCCN)C(=O)N[C@@H](Cc1ccc(O)cc1)C(=O)O [compound 9] (H-KHWLRFKPGQPMY-OH; N-terminus and C-terminus assumed)	<90%	100%	100%	100%	100%	active
CC[C@H](C)[C@H](NC(=O)[C@H](CCC(N)=O)NC(=O)[C@@H](NC(=O)[C@H](Cc1c[nH]c2ccccc12)NC(=O)[C@H](Cc1c[nH]cn1)NC(=O)[C@@H]1CCCN1)C(C)C)C(=O)N[C@@H](CCCCN)C(=O)N[C@@H](CC(C)C)C(=O)NCC(=O)N[C@@H](CCC(N)=O)C(=O)N1CCC[C@H]1C(=O)N[C@@H](CCSC)C(=O)N[C@@H](Cc1ccc(O)cc1)C(=O)O [compound 10] (H-PHWVQIKLGQPMY-OH; N-terminus and C-terminus assumed)	<90%	<90%	100%	100%	–	–
CC[C@H](C)[C@H](NC(=O)[C@H](Cc1c[nH]c2ccccc12)NC(=O)[C@H](Cc1c[nH]cn1)NC(=O)[C@@H](N)CCCCN)C(=O)N[C@H](C(=O)N[C@@H](Cc1ccccc1)C(=O)N[C@@H](CCCCN)C(=O)N1CCC[C@H]1C(=O)NCC(=O)N[C@@H](CCC(N)=O)C(=O)N1CCC[C@H]1C(=O)N[C@@H](CCSC)C(=O)N[C@@H](Cc1ccc(O)cc1)C(=O)O)[C@@H](C)O [compound 11] (H-KHWITFKPGQPMY-OH; N-terminus and C-terminus assumed)	<90%	<90%	100%	100%	–	–
CSCC[C@H](NC(=O)[C@@H]1CCCN1C(=O)[C@H](CCC(N)=O)NC(=O)CNC(=O)[C@@H]1CCCN1C(=O)[C@H](CCCCN)NC(=O)[C@H](Cc1ccccc1)NC(=O)[C@H](CCCNC(=N)N)NC(=O)[C@H](CC(C)C)NC(=O)[C@@H](NC(=O)[C@H](Cc1c[nH]cn1)NC(=O)[C@@H](N)CCCCN)C(C)C)C(=O)N[C@@H](Cc1ccc(O)cc1)C(=O)O [compound 12] (H-KHVLRFKPGQPMY-OH; N-terminus and C-terminus assumed)	<90%	99.94%	100%	100%	98.79%	active
CSCC[C@H](NC(=O)[C@@H]1CCCN1C(=O)[C@H](CCC(N)=O)NC(=O)CNC(=O)[C@@H]1CCCN1C(=O)[C@H](CCCCN)NC(=O)[C@H](Cc1ccccc1)NC(=O)[C@H](CCCCN)NC(=O)[C@H](CC(C)C)NC(=O)[C@H](Cc1c[nH]c2ccccc12)NC(=O)[C@H](Cc1c[nH]cn1)NC(=O)[C@@H](N)CCCCN)C(=O)N[C@@H](Cc1ccc(O)cc1)C(=O)O [compound 13] (H-KHWLKFKPGQPMY-OH; N-terminus and C-terminus assumed)	<90%	100%	100%	100%	100%	active
